Test results taken from US8440800B2, “Compositions for reducing cell adhesion to bubbles” (The Ohio State University Research Foundation, priority 2006, dated 2013).
Like-named read-outs stand apart in the source and are kept apart here.

How the values were obtained:
[1] = CMC and static surface tension, maximum bubble pressure method; assay type: physicochemical; conditions: for CMC: 37° C., CD CHO-A medium; for CMC SURFACE TENSION: cell culture medium at 37° C.
Method: (§1) The CMC depends on temperature and solution components. Given the significant number of components in typical cell culture media, the CMC of the comparative materials and the protective compositions were determined at 37° C. and in CD CHO-A medium using a SensaDyne bubble tensiometer PC500L (Chem-Dyne Research Corporation, Mesa, Ariz.), which uses the maximum bubble pressure method. The time between initial bubble formation and attainment of maximum bubble pressure, “surface age”, can be varied by changing the gas flow rate. When the static surface tensions were measured, the surface age were adjusted to approximate 1 s, which was enough for small molecule surfactants to migrate to the bubble surface and potentially reach equilibrium. When the dynamic surface tensions were measured, the surface age was varied in the range of about 0.1 to about 3.0 seconds.

[2] = Bubble size for two spargers (CCD camera); assay type: physicochemical
Method: (§2) Two spargers, a 22 gauge needle and a sintered glass (ACE glass, Vineland, N.J.) provided bubbles which produced, as expected, two different bubble sizes. The bubbles sizes were determined using a SCIMAX CCD digital camera (MVIA, Monaca, Pa.) and an infinity lens (ISCO Precision Optics GMBH, Germany) in a glass square column. The cell enrichment factor can be defined as the ratio of total LDH concentration in the foam liquid to that in the bulk liquid after lysing all the cells.
Consistent with the techniques used by Ma et al. (2004), the effectiveness of the protective compositions with respect to cell-bubble interactions was evaluated using the bubble collection device. Prior to the studies with cells, the size of the bubbles generated using a sintered glass sparger and a 22 gauge needle and two different concentrations of the PF-68® comparative material and the protective composition NM were determined.

CHO K1 cells = assay: Bubble-cell interactions, cell enrichment factor in foam (bubble collector, LDH); assay type: cell-based, Chinese Hamster
Method: An improved bubble collector device described by Ma et al. (2004) was used to quantitatively study cell entrapment in the foam. Specifically, this device can isolate bubble rupture events from foam formation vessel as well as maintain a plug-flow of bubbles from the foam layer into the bubble collection tube.
The cell concentration was determined using the lactate dehydrogenase (LDH) assay (CytoTox 96, Promega, Madison, Wis.). 9% (w/v) Triton X-100 solution was added to the cell suspension to be evaluated at a ratio of 1 to 10, and subsequently incubated at 37° C. for 45 minutes in order to lyse all the cells. A standard curve between LDH absorption and cell concentration by hemocytometer measurement was made for each set of experiments. The foam liquid volume was also measured by weighing the collect tube before and after experiments, assuming a liquid density of 1.0 g/ml.
For the bubble column studies, CHO K1 cells, grown in CD-CHO medium, were harvested during exponential phase of growth in spinner flasks. […]
as §2, with “The cell enrichment factor can be defined as the ratio of total LDH concentration in the foam liquid to that in the bulk liquid after lysing all the cells.” left out

[3] = system: Chinese Hamster Ovary cells (CHO) cell line K1; assay: Cytotoxicity studies in T25 flasks (cell growth); assay type: cell-based; conditions: T-25 flasks, 48 hours; concentrations of FIG. 6
Method: (§3) Chinese Hamster Ovary cells (CHO) cell line K1 (ATCC CCL-61) were used. The cells were initially cultured in Ham F-12 culture medium supplemented with 10% v/v fetal bovine serum (Sigma Aldrich Co., St. Louis, Mo.) in T-75 flasks. Then the cells were gradually adapted to chemically-defined medium (CD CHO-A, Invitrogen, Carlsbad, Calif.), which contain no PF-68. The cells were subcultured every 3-4 days and maintained at 37° C. incubator with 5% CO2. All the cultures were anchorage-dependent.
Various candidate materials from the 96 well plate assays were further investigated using T25 flasks. The concentration of the candidate materials were tested at discrete concentration, which depended on the specific material, but at the highest concentration exceeded 0.1 CMC. In all cases, tested, a concentration at which cell growth began to be inhibited was detected.
Additional protective compositions, Nonyl maltopyranoside (NM) and CYMAL®-4 (CM4), were purchased from Anatace Inc. (Maumee, Ohio). The inoculation was 3.0×10^5 cells/ml. After 48 hours, the cells were harvested by Accutase® (Innovative Cell Technologies Inc., San Diego, Calif.) and counted by a hemocytometer. Besides cell growth, the morphology of cells was also monitored by an inverted microscope (Nikon Ecllipse TE2000-U, Melville, N.Y.).

[4] = system: Chinese Hamster Ovary cells (CHO) cell line K1; assay: Fluorescent cytotoxicity screening, 96-well plates, calcein AM; assay type: cell-based
Method: as §3
The materials were compared at the same concentration relative to the specific surfactants critical micelle concentration, CMC, i.e., 0.01 CMC or 0.1 CMC. In order to minimize the effect of potential adsorption during filter sterilization, the concentrated material solutions were applied, and then diluted to desired concentration at time of use.
Black, clear-bottom 96-well plates (Fisher Scientific, Hampton, N.H.) were used in the screening experiments. In each well, 150 μl cell suspensions with a total cell number of approximately 10^4 were inoculated along with the test materials and subsequently cultured in a 37° C. incubator with 5% CO2. After 48 hours, the supernatant was carefully removed while the attached CHO cells remained at the bottom of the well. 100 μl of 4 μM calcein AM solution (Invitrogen, Carlsbad, Calif.), a fluorescence probe, was added to each well and incubated for one hour at 37° C. in order to quickly assess cell growth (Yang et al., 2002). Calcein AM is an esterase substrate which can be converted into a polar, fluorescent product by an intracellular enzyme. The fluorescence density was read by a Cytofluor 4000 (Applied Biosystems, Foster City, Calif.). Six replications were performed for each condition (type of material and concentration) and the positions on the 96 well plates were randomized. A reasonable linear relationship between cell number (less than 5×10^5 per well) and fluorescence density was confirmed before screening experiments; however, a control was created with each specific experiment.

[5] = Dynamic surface tension in cell culture medium; assay type: physicochemical; conditions: 0.28 g/L
Method: as §1

red blood cells = conditions: cited from earlier work

| CMC [1] [mM] | HEAD GROUP SIZE [1] [Å^2] | CMC SURFACE TENSION [1] [DYN/CM] | SMILES | other results |
| --- | --- | --- | --- | --- |
| 7.6 |  |  | OC[C@H]1O[C@H](O[C@H]2[C@H](O)[C@@H](O)[C@H](OCCCCC3CCCCC3)O[C@@H]2CO)[C@H](O)[C@@H](O)[C@@H]1O [CM4, 4-Cyclohexyl-1-butyl-β-D-maltoside] |  |
| 6 | 59 | 40.1 | CCCCCCCCCO[C@@H]1O[C@H](CO)[C@@H](O[C@H]2O[C@H](CO)[C@@H](O)[C@H](O)[C@H]2O)[C@H](O)[C@H]1O [NM, n-Nonyl-β-D-maltopyranoside] | Median Diameter of bubbles ([2]; 22 gauge needle (large bubble), 0.6 g/L): 2.7 mm; Median Diameter of bubbles ([2]; 22 gauge needle (large bubble), 1.0 g/L): 2.5 mm; Median Diameter of bubbles ([2]; sintered glass sparger (microbubble), 0.6 g/L): 159 μm; Median Diameter of bubbles ([2]; sintered glass sparger (microbubble), 1.0 g/L): 157 μm; Effect on cell enrichment factor (CHO K1 cells; 1.0 g/L): slightly decreases the enrichments factor further; Maximum concentration before inhibitory effects on cell growth was observed [3]: 1.0 g/L |
| 6.4 |  |  | CCCCCCCCCC[N+](C)(C)[O-] [DDeAO, N,N-Dimethyldecyl amine N-oxide] |  |
| 12.2 |  |  | CCCCCCCCCCOS(=O)(=O)[O-].[Na+] [SDeS, Sodium decyl sulfate] |  |
| 27.1 | 40 | 32.5 | CCCCCCCCO[C@@H]1O[C@H](CO)[C@@H](O)[C@H](O)[C@H]1O [OG, n-Octyl-β-D-glucopyranoside] | Toxicity relative to maltose head group analogue of same alkyl chain length [4]: more toxic |
| 11.0 |  |  | CCCCCCCCS[C@@H]1O[C@H](CO)[C@@H](O)[C@H](O)[C@H]1O [OT, n-Octyl-β-D-thioglucopyranoside] |  |
| 85.6 |  |  | CCCCCCCCOS(=O)(=O)[O-].[Na+] [SOS, Sodium octyl sulfate] |  |
| 2.3 | 32 | 31.5 | CCCCCCCCCCO[C@@H]1O[C@H](CO)[C@@H](O)[C@H](O)[C@H]1O [DG, n-Decyl-β-D-glucopyranoside] | Toxicity relative to maltose head group analogue of same alkyl chain length [4]: more toxic |
| 1.8 | 42 | 38.9 | CCCCCCCCCCO[C@@H]1O[C@H](CO)[C@@H](O[C@H]2O[C@H](CO)[C@@H](O)[C@H](O)[C@H]2O)[C@H](O)[C@H]1O [DM, n-Decyl-β-D-maltopyranoside] | Effect on decrease of the enrichment factor (CHO K1 cells; 0.28 g/L): less than PF-68® comparative material and the protective composition NM; Time to achieve equilibrium surface tension [5]: approximately 0.5 second; Maximum concentration before inhibitory effects on cell growth was observed [3]: 0.28 g/L |
| 24.5 | 61 | 41.5 | CCCCCCCCO[C@@H]1O[C@H](CO)[C@@H](O[C@H]2O[C@H](CO)[C@@H](O)[C@H](O)[C@H]2O)[C@H](O)[C@H]1O [OM, n-Octyl-β-D-maltopyranoside] | Toxicity to red blood cells (red blood cells): less toxic to red blood cells than the OG comparative material; Maximum concentration before inhibitory effects on cell growth was observed [3]: 3.5 g/L |

| SMILES | CMC [1] [mM] | HEAD GROUP SIZE [1] [Å^2] | CMC SURFACE TENSION [1] [DYN/CM] | other results |
| --- | --- | --- | --- | --- |
| CCCCCCCCCCCCOS(=O)(=O)[O-].[Na+] [SDS, Sodium dodecyl sulfate] | 2.3 |  |  | Cytotoxicity (inhibition of cell growth, fluorescence intensity) ([4]; 0.01 CMC and 0.1 CMC, 48 hours): inhibitory |
| CCCCCCCCCCCC[N+](C)(C)[O-] [DDAO, N,N-Dimethyldodecyl amine N-oxide] | 2.0 |  |  |  |
| CCCCCCCCCCCCCCCC[N+](C)(C)C.[Br-] [CTAB, Hexadecyltrimethyl ammonium bromide] | 1.3 |  |  | Cytotoxicity (inhibition of cell growth, fluorescence intensity) [4]: most toxic to cells; Microscopic observation of cells [4]: completely lysed the cells |
| CCCCCCCCCCCC[N+](C)(C)C.[Br-] [DTAB, Dodecyltrimethyl ammonium bromide] | 7.0 |  |  | Cytotoxicity (inhibition of cell growth, fluorescence intensity) ([4]; 0.01 CMC and 0.1 CMC, 48 hours): most toxic to cells; Microscopic observation of cells ([4]; at the lowest concentration): completely lysed the cells |
